Experimental data as given in patent US20250197864A1, “LNCRNA TRANSCRIPTS IN MELANOMAGENESIS” (The Regents of the University of California, priority 2021, published 2025).

Test system: gene expression in D04 melanoma cells
Experiment: RNA-Seq differential expression analysis (DESeq2)
Assay type: cell-based, human
Description: Total RNA was isolated using the RNeasy mini Kit (QIAGEN) following the manufacturer's protocol. Quality check for extracted RNA was done using 2100 Bioanalyzer (Agilent Technologies, USA) or Tapestation System (Agilent Technologies, USA). […] For samples used for identification of MAPK-responsive lncRNAs, paired-end, 101-bp sequencing was performed by Centrillion Genomic Services (Centrillion Biosciences, USA) on an Illumina HiSeq 2000. For DE gene analysis of ASO-transfected D04 samples, paired-end, 2×150-bp sequencing was performed by Genewiz (USA) on a Illumina HiSeq.
Sequence reads were aligned to the human genome (hg19) using TopHat (Version 2.0.11).
Differential expression (DE) analysis was done using DESeq2. Differentially expressed genes were defined by more than 1.5-fold changes (log 2 >0.58 or <−0.58) in expression with FDR<0.05. GO term analysis was done using DAVID Functional Annotation Clustering analysis.
To examine the biomolecular changes upon TRASH-inhibition in melanoma, D04 cells were treated with TRASH-ASOs (SEQ ID NO:15) and Control-ASOs and RNA was extracted and used for RNA-Seq. […] These GO terms consisted of genes encoding growth factors, tyrosine kinases, G protein coupled receptor subunits, and collagen subunits. Scatter plot diagram showing differential gene expression after TRASH-ASO treatment compared to Control-ASO treatment. (cut-off for significance was adjusted p-value <0.05). Data was obtained from RNA-Seq of D04 melanoma cells, treatment period was three days. (FIG. 5c)

Sequence: GACTGGAGATAATTAA (gapmer, pattern not given here) [SEQ ID NO: 15, GapmeR ASO targeting AC004540.4 (TRASH), exon region of both isoforms; used for in vitro experiments]
- log2FoldChange (PPM1L (ENSG00000163590)): −0.7017
- log2FoldChange (PRICKLE2 (ENSG00000163637)): −0.6639
- log2FoldChange (PRR5L (ENSG00000135362)): −0.6328
- log2FoldChange (PTPRN2 (ENSG00000155093)): 2.844
- log2FoldChange (PTPRR (ENSG00000153233)): 1.4591
- log2FoldChange (PURPL (ENSG00000250337)): −0.6494
- log2FoldChange (PYROXD2 (ENSG00000119943)): −0.6602
- log2FoldChange (RAB11FIP3 (ENSG00000090565)): −0.5869
- log2FoldChange (RAB26 (ENSG00000167964)): −0.6129
- log2FoldChange (RAB39B (ENSG00000155961)): 2.06
- log2FoldChange (RASEF (ENSG00000165105)): 1.674
- log2FoldChange (RASL10B (ENSG00000270885)): −0.6526
- log2FoldChange (RBMS3 (ENSG00000144642)): −0.6061
- log2FoldChange (RFTN2 (ENSG00000162944)): −0.6802
- log2FoldChange (RGS4 (ENSG00000117152)): 1.366
- log2FoldChange (RGS5 (ENSG00000143248)): −0.6262
- log2FoldChange (RINL (ENSG00000187994)): 1.242
- log2FoldChange (ROBO4 (ENSG00000154133)): 2.692
- log2FoldChange (RPLPOP2 (ENSG00000243742)): 1.744
- log2FoldChange (RUNDC3A (ENSG00000108309)): 1.302
- log2FoldChange (S1PR2 (ENSG00000267534)): −0.6769
- log2FoldChange (S100A3 (ENSG00000188015)): −0.6246
- log2FoldChange (SAMD5 (ENSG00000203727)): −0.6969
- log2FoldChange (SAMD9L (ENSG00000177409)): −0.5978
- log2FoldChange (SBSN (ENSG00000189001)): 1.621
- log2FoldChange (SBSPON (ENSG00000164764)): −0.705
- log2FoldChange (SCG2 (ENSG00000171951)): −0.6659
- log2FoldChange (SCG5 (ENSG00000166922)): 1.621
- log2FoldChange (SCN1B (ENSG00000105711)): −0.608
- log2FoldChange (SCN4A (ENSG00000007314)): 2.301
- log2FoldChange (SDCCAG8 (ENSG00000054282)): −0.7066
- log2FoldChange (SERPINB7 (ENSG00000166396)): 1.415
- log2FoldChange (SERPINI2 (ENSG00000114204)): 2.645
- log2FoldChange (SH2D1B (ENSG00000198574)): 1.495
- log2FoldChange (SHROOM4 (ENSG00000158352)): −0.6228
- log2FoldChange (SIGLEC15 (ENSG00000197046)): 2.101
- log2FoldChange (SIL1 (ENSG00000120725)): −0.6521
- log2FoldChange (SLAMF7 (ENSG00000026751)): 2.821
- log2FoldChange (SLAMF9 (ENSG00000162723)): 2.487
- log2FoldChange (SLC45A2 (ENSG00000164175)): −0.6697
- log2FoldChange (SLCO4C1 (ENSG00000173930)): −0.6425
- log2FoldChange (SOCS2 (ENSG00000120833)): −0.5921
- log2FoldChange (SOCS3 (ENSG00000184557)): −0.6206
- log2FoldChange (SOX2 (ENSG00000181449)): −0.7006
- log2FoldChange (SPANXC (ENSG00000198573)): 1.331
- log2FoldChange (SPINK1 (ENSG00000164266)): 3.07
- log2FoldChange (SPINT2 (ENSG00000167642)): 2.192
- log2FoldChange (SPRY2 (ENSG00000136158)): −0.6059
- log2FoldChange (SPRY4 (ENSG00000187678)): −0.6537
- log2FoldChange (ST6GALNAC2 (ENSG00000070731)): −0.6963
- log2FoldChange (ST6GALNAC5 (ENSG00000117069)): −0.6397
- log2FoldChange (STRA6 (ENSG00000137868)): −0.6369
- log2FoldChange (STX17-AS1 (ENSG00000255145)): 1.8172
- log2FoldChange (SULT1A1 (ENSG00000196502)): −0.7045
- log2FoldChange (SYNGR1 (ENSG00000100321)): −0.6288
- log2FoldChange (SYT11 (ENSG00000132718)): 1.326
- log2FoldChange (SYT16 (ENSG00000139973)): 1.62
- log2FoldChange (TEK (ENSG00000120156)): −0.6347
- log2FoldChange (TENM1 (ENSG00000009694)): −0.7059
- log2FoldChange (TFAP2E (ENSG00000116819)): −0.6597
- log2FoldChange (TGFB3 (ENSG00000119699)): −0.6408
- log2FoldChange (TGFBR3 (ENSG00000069702)): −0.639
- log2FoldChange (THSD4 (ENSG00000187720)): −0.6139
- log2FoldChange (TINAGL1 (ENSG00000142910)): 1.287
- log2FoldChange (TM4SF1 (ENSG00000169908)): 1.389
- log2FoldChange (TMC8 (ENSG00000167895)): 1.259
- log2FoldChange (TMEM117 (ENSG00000139173)): −0.6405
- log2FoldChange (TMEM135 (ENSG00000166575)): −0.6788
- log2FoldChange (TNFRSF11B (ENSG00000164761)): −0.5845
- log2FoldChange (TNFSF8 (ENSG00000106952)): 1.66
- log2FoldChange (TNFSF10 (ENSG00000121858)): −0.6562
- log2FoldChange (TNFSF11 (ENSG00000120659)): −0.6111
- log2FoldChange (TOM1L2 (ENSG00000175662)): −0.6126
- log2FoldChange (TRIB2 (ENSG00000071575)): −0.6666
- log2FoldChange (TRIML2 (ENSG00000179046)): 2.081
- log2FoldChange (TSPAN9 (ENSG00000011105)): −0.6484
- log2FoldChange (VIPR2 (ENSG00000106018)): 1.91
- log2FoldChange (VWA1 (ENSG00000179403)): −0.6674
- log2FoldChange (VWCE (ENSG00000167992)): 1.639
- log2FoldChange (XAF1 (ENSG00000132530)): −0.6048
- log2FoldChange (XG (ENSG00000124343)): 2.256
- log2FoldChange (ZC3H6 (ENSG00000188177)): −0.6449
- log2FoldChange (ZDHHC11 (ENSG00000188818)): 1.322
- log2FoldChange (ZFYVE28 (ENSG00000159733)): −0.6436
- log2FoldChange (ZHX2 (ENSG00000178764)): −0.5891
- log2FoldChange (ZNF165 (ENSG00000197279)): 1.226
- log2FoldChange (ZNF185 (ENSG00000147394)): 1.367
- log2FoldChange (ZSCAN31 (ENSG00000235109)): −0.6972
